The values that follow come from ChEMBL document CHEMBL1130710, “Design and synthesis of a novel class of nucleotide analogs with anti-HCMV activity” (Bioorg Med Chem Lett, 1998).

Structures are written as SMILES. In brackets after ≈: the same amount, converted by molar mass. Several values for one entry are separate records, joined by “and”; a condition that tells them apart may be missing. Equal entries are not always repeated. A value given as a limit tells only on which side of the number the result lay.

For assay [1], the system named is F2002 cell line. Description: (§1) Anti-HCMV activity against F2002 cell line. The settings on record: Homo sapiens, read-out: CD50 (the source's name). Format: functional.
Assay [2] has as its system F2002 cell line. The description is as §1. It is filed as functional, cell-based, Homo sapiens.
The subject of assay [3] is F2002 cell line. As to the kind of experiment: Compound was tested for Anti-HCMV activity against F2002 cell line(exp 1). It is filed as functional, cell-based. The settings on record: Homo sapiens.
Assay [4] concerns F2002 cell line. Description: Compound was tested for Anti-HCMV activity against F2002 cell line(exp 2). Format: functional, cell-based. The settings on record: Homo sapiens.
Where [5] appears, read: Homo sapiens, F2002, read-out: IC50.

Usually IC50 stands for the concentration that gives 50% inhibition. On to `Cc1cn(CC2COC(P(=O)(O)O)O2)c(=O)[nH]c1=O` (stereo unspecified), for which the CC50 in assay [1] was > 100 µg/mL. In assay [2] (setting [5]), the half-maximal inhibitory concentration (IC50) is > 100 µg/mL. Regarding `N.Nc1nc(O)c2ncn(C[C@H]3CO[C@H](P(=O)(O)O)O3)c2n1`, the CC50 in assay [1] is > 30 µg/mL. Moreover, in assay [2] (setting [5]), the IC50 is > 30 µg/mL. As for `Nc1ncnc2c1ncn2CC1COC(P(=O)(O)O)O1` (stereo unspecified), the CC50 in assay [1] was > 100 µg/mL. In addition, in assay [2] (setting [5]), the IC50 was > 100 µg/mL. Turning to `N.Nc1nc(O)c2ncn(C[C@@H]3CO[C@H](P(=O)(O)O)O3)c2n1`, the IC50 in assay [2] (f2002) is 45 µg/mL and > 100 µg/mL. `N.Nc1nc(O)c2ncn(C[C@@H]3CO[C@@H](P(=O)(O)O)O3)c2n1`: the CC50 in assay [1] was > 100 µg/mL. Also, in assay [2] (setting [5]), the IC50 is > 100 µg/mL. With `N.O=c1ccn(CC2COC(P(=O)(O)O)O2)c(=O)[nH]1` (stereo unspecified), the CC50 in assay [1] was > 100 µg/mL. In addition, the IC50 in assay [2] (setting [5]) was > 100 µg/mL. Turning to `N.Nc1nc(O)c2ncn(C[C@H]3CO[C@@H](P(=O)(O)O)O3)c2n1`, in assay [1], the CC50 is > 100 µg/mL. Moreover, the IC50 in assay [2] (setting [5]) was > 100 µg/mL. As to `Nc1ccn(CC2COC(P(=O)(O)O)O2)c(=O)n1` (stereo unspecified), the CC50 in assay [1] is > 100 µg/mL. In assay [2] (setting [5]), the IC50 is > 100 µg/mL.

In turn, `Nc1nc(O)c2ncn(CC3COC(P(=O)(O)O)O3)c2n1` (stereo in doubt; 7a) displayed an IC50 in assay [2] (f2002) of 20 µg/mL (≈ 63.1 µM). Turning to `Nc1nc(O)c2ncn(CC3COC(P(=O)(O)O)O3)c2n1` (stereo in doubt; 7b), the CC50 in assay [1] was > 100 µg/mL. Moreover, the IC50 in assay [2] (f2002) is > 100 µg/mL.

For the compound `Nc1nc2c(ncn2COC(CO)CO)c(=O)[nH]1` [GANCICLOVIR], the CC50 in assay [1] was > 100 µg/mL. Also, the results for the IC50 in assay [3] and in assay [4] were 0.1 µg/mL (≈ 0.392 µM) and 0.2 µg/mL (≈ 0.784 µM), respectively.
